Common to all, as to type: cell-based, human
In assay [1] the test system is GLP-1R R344A. In words: cAMP accumulation assay (GloSensor).
The subject of assay [2] is GLP-1R F169. In words: G protein activation assay (BRET2 TRUPATH). Conditions: agonist GLP-1, HEK-293T, s.d. As for the experimental part:
(§1) Cells were treated with 20 μL of each compound.
(§2) Significant difference is accepted at p < 0.05.
For orientation: BRET reads energy transfer from a luciferase to a nearby fluorophore.

For assay [3], the system named is GLP-1R Y250. In words: G protein activation assay (BRET2 TRUPATH). Particulars: agonist GLP-1, HEK-293T, s.d. The protocol:
as §1, §2

The subject of assay [4] is GLP-1R-mediated Gs activation, Gαs L394 to alanine. In words: G protein activation assay (BRET2 TRUPATH), Gαs mutant L394 to alanine. Particulars: Gαs L394 replaced by alanine, vs WT; HEK-293T. The protocol: as §1, §2
The test system of assay [5] is GLP-1R-mediated Gs activation, Gαs L394 and L393 substituted. In words: G protein activation assay (BRET2 TRUPATH), Gαs double mutant L393 and L394. Conditions: Gαs L394 and L393 both substituted, vs WT; HEK-293T. The protocol:
as §1, §2

In assay [6] the test system is GLP-1R-mediated Gs activation, Gαs truncation of residues 2-8. The experiment in a line: G protein activation assay (BRET2 TRUPATH), Gαs truncated 2-8. Conditions: Gαs truncation of residues 2-8, vs WT, HEK-293T. As for the experimental part: as §1, §2
The subject of assay [7] is GLP-1R-mediated Gs activation, Gαs truncation of residues 2-10. The experiment in a line: G protein activation assay (BRET2 TRUPATH), Gαs truncated 2-10. Particulars: Gαs truncation of residues 2-10, vs WT, HEK-293T. The protocol:
as §1, §2

Assay [8] concerns GLP-1R-mediated Gs activation, Gαs alanine mutants. The experiment in a line: G protein activation assay (BRET2 TRUPATH), alanine scan of 41 Gαs residues. Particulars: 16 of 41 Gαs alanine mutants, vs WT. As for the experimental part: as §1, §2
Assay [9] deals with GLP-1R alanine mutants. The experiment in a line: cAMP accumulation assay (GloSensor), alanine scan of 37 GLP-1R residues. A general note: Cyclic AMP is a second messenger, typically raised through Gs and lowered through Gi signalling.
In assay [10] the test system is GLP-1R mutants of L172, C174, N177, Y250 and M340. In words: cAMP accumulation assay, mutants of functional residues except F169. Particulars: mutants of six functional residues except F169; four independent experiments.
Source text: The cDNA of human GLP-1R was cloned into vector pcDNA 3.1 or pRK. In the cAMP assay, the GLP-1R sequence comprises the native signal peptide (residues 1–23) and a FLAG tag. In flow cytometry analysis, the GLP-1R sequence contains the same native signal peptide, followed by a FLAG or HA tag. Mutations or deletions for the cAMP assay and flow cytometry were generated using seamless cloning with KOD-Plus-Neo (TOYOBO) and confirmed by DNA sequencing.
After overnight of culture, specified amounts of wild-type or mutant GLP-1R and 0.5 μg of pGloSensor cAMP plasmid were cotransfected into HEK-293T cells using calcium phosphate. After 24 h of culture, the transfected cells were seeded into 384-well plates (12 000 cells per well). cAMP accumulation was measured using the GloSensor cAMP assay kit (Promega) according to the manufacturer’s instructions. In brief, transfected cells were incubated for 30 min in GloSensor cAMP reagent at 37 °C and room temperature.
as §2

The term EC50 denotes the concentration that produces a half-maximal response.

In assay [1] (agonist GLP-1, HEK-293T, 15 min, 25 °C, surface expression 31±4.03 % WT), `CC[C@H](C)[C@H](NC(=O)[C@H](Cc1ccccc1)NC(=O)[C@H](CCC(=O)O)NC(=O)[C@H](CCCCN)NC(=O)[C@H](C)NC(=O)[C@H](C)NC(=O)[C@H](CCC(N)=O)NC(=O)CNC(=O)[C@H](CCC(=O)O)NC(=O)[C@H](CC(C)C)NC(=O)[C@H](Cc1ccc(O)cc1)NC(=O)[C@H](CO)NC(=O)[C@H](CO)NC(=O)[C@@H](NC(=O)[C@H](CC(=O)O)NC(=O)[C@H](CO)NC(=O)[C@@H](NC(=O)[C@H](Cc1ccccc1)NC(=O)[C@@H](NC(=O)CNC(=O)[C@H](CCC(=O)O)NC(=O)[C@H](C)NC(=O)[C@@H](N)Cc1c[nH]cn1)[C@@H](C)O)[C@@H](C)O)C(C)C)C(=O)N[C@@H](C)C(=O)N[C@@H](Cc1c[nH]c2ccccc12)C(=O)N[C@@H](CC(C)C)C(=O)N[C@H](C(=O)N[C@@H](CCCCN)C(=O)NCC(=O)N[C@@H](CCCNC(=N)N)C(N)=O)C(C)C` [GLP-1] showed an EC50 of 0.0865 ± 0.0099 nM. Besides, the Emax in [1] (agonist GLP-1, cAMP accumulation, HEK-293T) is 80±4 WT %; in assay [2], 101.04±3.59 % WT; in assay [3], 13.84±2.59 % WT. Moreover, the “GLP-1 efficacy in inducing G protein dissociation” value in [4] is listed as “decrease in GLP-1 efficacy”. Also, the “GLP-1 activity in G protein dissociation” value in assay [5] was “completely abolished the GLP-1 activity”. The “Gs protein activation mediated by GLP-1R” value in assay [6] and in assay [7] was “significantly attenuated the Gs protein activation” each time. Further, in assay [8], the “GLP-1 efficacy in Gs activation” value is listed as “significant reduction of GLP-1 efficacy in Gs activation for 16 mutants”. Moreover, the “GLP-1 potency in cAMP signaling induction” value in assay [9] (18 of 37 GLP-1R alanine mutants, vs WT) is “significant reduction of GLP-1 potency in cAMP signaling induction for 18 mutants”. In addition, in assay [9] (two mutants with abnormal expression (gray columns in Figure 5b)), the “GLP-1 efficacy (cAMP)” value was “deficient GLP-1 efficacy”.
For the molecule `N#Cc1ccc(COc2cccc(C3CCN(Cc4nc5ccc(C(=O)O)cc5n4C[C@@H]4CCO4)CC3)n2)c(F)c1` [PF 06882961], the “cAMP signaling vs WT” value in [10] is reported as “attenuated cAMP signaling”.
On the same count and under the same terms, as for “exendin-4: another peptide agonist (exendin-4)”, the entry is “attenuated cAMP signaling”.

The record behind these values is PMC10214531 (ACS Central Science, 2023).
